As a reminder, the CL/F is the apparent clearance, not corrected for the fraction that reaches the circulation. As usually defined, the IC50 is the point on the concentration scale where inhibition reaches its midpoint.

The values below come from ChEMBL document CHEMBL5316313, “Discovery of Novel 3-Phenylpiperidine Derivatives Targeting the β-Catenin/B-Cell Lymphoma 9 Interaction as a Single Agent and in Combination with the Anti-PD-1 Antibody for the Treatment of Colorectal Cancer” (J Med Chem, 2023).

One series deals with HEK293. Briefly: Induction of apoptosis in Wnt-independent human HEK293 cells assessed as early apoptotic cells at 20 uM incubated for 24 hrs by Annexin V-Alexa Fluor 647/PI staining based flow cytomtery (Rvb=17.4%). It counts as functional.
The next series concerns HCT-116. As to the kind of experiment: Induction of apoptosis in Wnt-dependent human HCT-116 cells assessed as viable cells at 20 uM incubated for 24 hrs by Annexin V-Alexa Fluor 647/PI staining based flow cytomtery (Rvb=69.5%). It counts as functional. The note with it: read-out: Activity.
Series [1] has as its system CT26. Briefly: Induction of apoptosis in Wnt-dependent mouse CT26 cells assessed as necrotic cells at 20 uM incubated for 24 hrs by Annexin V-Alexa Fluor 647/PI staining based flow cytomtery (Rvb=1.04%). It counts as functional.
For series [2], the system named is CT26. As to the kind of experiment: Induction of apoptosis in Wnt-dependent mouse CT26 cells assessed as late apoptotic cells at 20 uM incubated for 24 hrs by Annexin V-Alexa Fluor 647/PI staining based flow cytomtery (Rvb=9.96%). It counts as functional.
For series [3], the system named is CT26. As to the kind of experiment: Induction of apoptosis in Wnt-dependent mouse CT26 cells assessed as early apoptotic cells at 10 uM incubated for 24 hrs by Annexin V-Alexa Fluor 647/PI staining based flow cytomtery (Rvb=18.3%). It counts as functional.
The nature of series [4]: Toxicity in BALB/c mouse xenografted with mouse CT26 cells assessed as pathological changes in lung at 30 mg/kg, ip QD by hematoxylin and eosin staining based microscopic analysis. It counts as organism-based. The conditions noted are these: in vivo.
The nature of series [5]: Toxicity in BALB/c mouse xenografted with mouse CT26 cells assessed as pathological changes in kidney at 30 mg/kg, ip QD by hematoxylin and eosin staining based microscopic analysis. The note with it: in vivo. It counts as organism-based.
Series [6] can be described thus: Clearance in Sprague-Dawley rat at 21 mg/kg, ip and measured upto 24 hrs by LC-MS analysis. It counts as ADME, organism-based. The note with it: in vivo.
In series [7] the test system is CT26. As to the kind of experiment: Synergistic antitumor activity in mouse CT26 cells xenografted in BALB/c mouse assessed as increase in granzyme B-positive CD8+ T cell infiltration into tumor at 30 mg/kg, ip QD in presence of anti-PD-1 antibody cotreatment at 10 mg/kg,ip BIW by flow cytometry. It counts as functional, organism-based. On the technique in general: A flow cytometer gives signals particle by particle.

For series [8], the target named is T1, beta-catenin-B-cell lymphoma 9 protein complex (Homo sapiens, UniProt P35222).
T1 sequence (P35222 whole entry): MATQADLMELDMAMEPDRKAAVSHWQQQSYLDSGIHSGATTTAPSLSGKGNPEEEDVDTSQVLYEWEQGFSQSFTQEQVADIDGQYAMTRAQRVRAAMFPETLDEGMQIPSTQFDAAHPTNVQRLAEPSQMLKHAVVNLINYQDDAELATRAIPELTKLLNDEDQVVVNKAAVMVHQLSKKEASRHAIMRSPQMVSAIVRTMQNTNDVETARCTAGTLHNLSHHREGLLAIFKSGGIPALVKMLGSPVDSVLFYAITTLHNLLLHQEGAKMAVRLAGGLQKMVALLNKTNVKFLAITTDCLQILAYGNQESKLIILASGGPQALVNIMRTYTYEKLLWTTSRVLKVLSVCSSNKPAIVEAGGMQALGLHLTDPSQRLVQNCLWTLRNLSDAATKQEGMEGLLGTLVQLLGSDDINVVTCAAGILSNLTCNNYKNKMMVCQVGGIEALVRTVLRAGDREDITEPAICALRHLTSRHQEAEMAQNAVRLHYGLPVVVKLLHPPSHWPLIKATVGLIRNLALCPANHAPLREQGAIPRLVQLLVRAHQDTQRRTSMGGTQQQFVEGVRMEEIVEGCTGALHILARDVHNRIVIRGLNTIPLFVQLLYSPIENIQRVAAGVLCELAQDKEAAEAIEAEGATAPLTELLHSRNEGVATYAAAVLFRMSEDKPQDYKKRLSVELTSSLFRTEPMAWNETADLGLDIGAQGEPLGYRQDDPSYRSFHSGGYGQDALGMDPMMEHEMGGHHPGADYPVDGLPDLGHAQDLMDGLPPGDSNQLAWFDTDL
T1 sequence (O00512 whole entry): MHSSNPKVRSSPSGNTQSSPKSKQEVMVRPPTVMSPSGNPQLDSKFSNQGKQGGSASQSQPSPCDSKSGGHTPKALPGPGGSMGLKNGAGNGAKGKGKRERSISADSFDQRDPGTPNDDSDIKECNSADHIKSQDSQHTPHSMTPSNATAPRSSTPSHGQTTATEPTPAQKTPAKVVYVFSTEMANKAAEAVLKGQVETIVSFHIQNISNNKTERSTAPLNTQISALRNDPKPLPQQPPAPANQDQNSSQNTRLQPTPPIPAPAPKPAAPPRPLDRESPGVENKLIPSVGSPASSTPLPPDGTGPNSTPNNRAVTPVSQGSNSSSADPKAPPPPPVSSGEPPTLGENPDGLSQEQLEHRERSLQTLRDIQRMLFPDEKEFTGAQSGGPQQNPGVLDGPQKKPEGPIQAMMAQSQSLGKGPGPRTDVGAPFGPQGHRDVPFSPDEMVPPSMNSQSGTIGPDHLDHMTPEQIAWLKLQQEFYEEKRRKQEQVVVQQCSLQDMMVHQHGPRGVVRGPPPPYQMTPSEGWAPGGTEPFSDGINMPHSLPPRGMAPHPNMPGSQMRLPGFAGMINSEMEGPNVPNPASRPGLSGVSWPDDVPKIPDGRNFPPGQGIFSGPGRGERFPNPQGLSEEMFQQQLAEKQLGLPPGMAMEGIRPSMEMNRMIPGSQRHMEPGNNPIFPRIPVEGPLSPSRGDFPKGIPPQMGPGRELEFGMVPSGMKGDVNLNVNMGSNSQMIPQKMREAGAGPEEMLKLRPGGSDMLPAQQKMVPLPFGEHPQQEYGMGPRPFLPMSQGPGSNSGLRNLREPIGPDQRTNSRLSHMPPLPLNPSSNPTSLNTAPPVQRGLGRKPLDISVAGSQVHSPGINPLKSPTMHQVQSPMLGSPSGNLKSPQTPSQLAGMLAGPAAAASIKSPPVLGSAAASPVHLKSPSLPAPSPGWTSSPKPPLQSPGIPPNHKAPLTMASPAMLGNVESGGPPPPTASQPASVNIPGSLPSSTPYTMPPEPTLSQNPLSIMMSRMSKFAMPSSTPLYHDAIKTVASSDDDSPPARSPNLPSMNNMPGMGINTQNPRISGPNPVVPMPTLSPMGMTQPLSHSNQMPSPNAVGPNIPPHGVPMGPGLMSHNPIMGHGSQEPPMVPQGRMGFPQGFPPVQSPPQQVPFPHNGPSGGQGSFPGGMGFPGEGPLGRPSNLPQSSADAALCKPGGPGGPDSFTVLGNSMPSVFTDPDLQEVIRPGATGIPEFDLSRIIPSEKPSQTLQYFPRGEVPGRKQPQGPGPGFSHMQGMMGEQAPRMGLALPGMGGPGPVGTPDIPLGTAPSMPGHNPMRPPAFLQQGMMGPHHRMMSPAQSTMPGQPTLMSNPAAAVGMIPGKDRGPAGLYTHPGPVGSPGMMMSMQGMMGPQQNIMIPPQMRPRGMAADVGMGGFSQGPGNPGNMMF
As to the kind of experiment: Inhibition of beta-catenin/BCL9 protein-protein interaction in Wnt-independent human A549 cells assessed as reduction in Axin2 expression level by qRT-PCR assay. It counts as cell-based.

The target of series [9] is T1, beta-catenin-B-cell lymphoma 9 protein complex. Briefly: Inhibition of beta-catenin/BCL9 protein-protein interaction in Wnt-independent human RKO cells assessed as reduction in Axin2 expression level by qRT-PCR assay. It counts as cell-based. In general terms: In qPCR the cycle at which signal appears reflects the starting amount.

The source made the active and inactive calls. The calls are words filed in the database; no cut-off is given here.

As to `CC(C)c1ccc(-c2cccc(S(=O)(=O)N3CCCC(c4cccc(OC(C)(C)C(=O)NS(=O)(=O)c5ccc(C(F)(F)F)cc5)c4)C3)c2)cc1` (stereo unspecified), the Activity in the series with HEK293 was 17%; in the series with CT26 [1], 1.42%; in the series with CT26 [2], 52.6%; in the series on CT26 [3] it was 24%; in [4], “Non-Toxic”; in series [5], “Non-Toxic”. In the series with HCT-116, the viability at 20 µM came to 37.3%. Further, the CL/F in series [6] is 20.1 mL/min/kg. Also, the outcome in the series with CT26 [7] was Active.
In the case of `O=C1[C@H](Cc2ccc(O)cc2)N2C(=O)CCN(C(=O)NCc3ccccc3)[C@H]2CN1Cc1cccc2ccccc12`, the values for the IC50 in series [8] and in [9] were 24.7 µM and 26.3 µM, respectively.
